Each structure is given as a SMILES string. Entries after “also recorded” stand apart in the source; their conditions may differ. Like-named read-outs stand apart in the source and are kept apart here. Bounds are passed on as bounds.

The subject of data set [1] is HIV-1IIIB (X4). As to the kind of experiment: Anti-HIV activity in infected TZM-bl cells (luciferase), pre- and post-infection treatment. It counts as cell-based, Human Immunodeficiency Virus Type 1 (HIV-1). Conditions: for anti-HIV activity against X4 strain in words: HIV-1IIIB; for inhibition at 18 µM / inhibition at 37 µM / inhibition at 75 µM / inhibition at 150 µM: Human immunodeficiency virus 1, TZM-bl, read-out: Percentage inhibition of HIV-1IIIB (X4 strain) replication. Here is the method:
(§1) TZM-bl cells were plated in a flat-bottom 96-well plate (Corning Inc., Corning, New York, NY, USA) at the concentration of 1.2 × 10^5 cells/well and incubated for 24 h at 37 °C before the addition or not of each compound at non-cytotoxic concentrations (pre-infection treatment). Then, 1 h later the treatment was removed, and the infection was performed by adding 10 ng/mL of HIV-1IIIB p24 (X4) or 2 ng/mL of HIV-1 BaL (R5). After 3 h, the virus was removed and washed, and the compound dilutions were added again (post-infection treatment). Additionally, three wells were left for the negative control (cells without treatment or infection), the positive control of infection (cells infected with the virus without treatment), and the positive control of inhibition (AZT). Antiviral activity was quantified 48 h after treatment by measuring luciferase activity, which is directly proportional to the number of infectious virus particles in the sample [23]. The luciferase activity was quantified via luminescence emitted by the cells using Bright-GloTM Luciferase Assay System (Promega Corp., Madison, WI, USA), following the manufacturer’s instructions. Briefly, 100 μL of the reagent was added to 100 μL of TZM-bl cells and incubated for at least 2 min, protected from light. Relative light units (RLUs) were measured using the multi-mode plate reader (Thermo ScientificTM VarioskanTM LUX). Each experimental condition was performed in triplicate in two independent experiments (n = 6). The percentage inhibition was calculated as follows: 100 − (RLU of treated cells − RLU of uninfected cells/RLU of infection control − RLU of uninfected cells) × 100.

Data set [2] concerns HIV-1 BaL (R5). Described as above. It counts as cell-based, Human Immunodeficiency Virus Type 1 (HIV-1). The settings on record: for anti-HIV activity against R5 strain in words: HIV-1 BaL; for inhibition at 18 µM / inhibition at 37 µM / inhibition at 75 µM / inhibition at 150 µM / inhibition at 300 µM: read-out: Percentage inhibition of HIV-1 BaL replication. The method, then: as §1

Data set [3] is described as follows: MTT cytotoxicity assay. The settings on record: human; TZM-bl cells, MTT, 48 h. The data set is classed as cell-based. Here is the method: The in vitro cytotoxic effect of the di-halogenated compounds on TZM-bl cells was determined with the MTT (3-(4,5-Dimethylthiazol-2-yl)-2,5-diphenyltetrazolium bromide) assay (Sigma-Aldrich, St. Louis, MO, USA). For this purpose, 1.2 × 10^5 cells/well were seeded in 96-well plates, which were incubated at 37 °C and 5% CO2 for 24 h. DMEM was used as a negative control and serial two-fold dilutions of the compounds were performed at 9.37 to 300 μM in DMEM supplemented with 5% FBS. A total of 100 μL/well of each dilution was added and incubated for 48 h. Subsequently, the cells were washed 2 times with 1X PBS, and 30 μL of MTT solution (2 mg/mL) was added and incubated for 2 h at 37 °C, in a light-protected culture. Then, 100 µL of DMSO was added to dissolve the formazan crystals, placed in shaking for 15 min, and absorbance reading was performed at 570 nm, using the Microplate Spectrophotometer (Thermo Scientific™ Multiskan™ GO, Waltham, MA, USA). Two independent experiments evaluated each experimental condition in quadruplicate (n = 8). The percentage of viability was calculated concerning the absorbance of the controls without a compound (100% viability). The 50% cytotoxic concentration was defined as the concentration of each compound that can reduce cell viability to 50% of the untreated cell control. CC50 was calculated and analyzed with GraphPad Prism version 8.0.1 (GraphPad Software, Inc., San Diego, CA, USA).

Where [4] appears, read: Human immunodeficiency virus 1, BAL, 18 µM, TZM-bl cells.
[5] abbreviates: Human immunodeficiency virus 1, BAL, 37 µM, TZM-bl cells.
Where [6] appears, read: Human immunodeficiency virus 1, BAL, 75 µM, TZM-bl cells.
[7] abbreviates: Human immunodeficiency virus 1, BAL, 150 µM, TZM-bl cells.
Where [8] appears, read: Human immunodeficiency virus 1, BAL, TZM-bl cells.
[9] abbreviates: Human immunodeficiency virus 1, BAL, TZM-bl.

For the compound `CN(C)[C@@H](Cc1cc(Br)c(O)c(Br)c1)C(=O)O` [TDB-2M], in data set [1] (TZM-bl cells), the “anti-HIV activity against X4 strain in words” value was “did not inhibit the replicative activity”. Besides, the inhibition at 18 µM in data set [1] (18 µM, TZM-bl cells) was -1.3%; in data set [2] (setting [4]) it was -57.9%. The inhibition at 37 µM was 15.9% in data set [1] (37 µM, TZM-bl cells) and -45.5% in data set [2] (setting [5]). The inhibition at 75 µM in data set [1] (75 µM, TZM-bl cells) was -2.9%; in data set [2] (setting [6]), -19.2%. The inhibition at 150 µM is 2.9% in data set [1] (150 µM, TZM-bl cells) and -51.9% in data set [2] (setting [7]). The “anti-HIV activity against R5 strain in words” value in data set [2] (TZM-bl cells) is recorded as “did not inhibit the replicative activity”.
On to `C[N+](C)(C)[C@@H](Cc1cc(Br)c(O)c(Br)c1)C(=O)O` [TDB-3M], for which the “anti-HIV activity against X4 strain in words” value in data set [1] (TZM-bl cells) is given as “did not inhibit the replicative activity”. In addition, the inhibition at 18 µM in data set [1] (18 µM, TZM-bl cells) was 2.7%; in data set [2] (setting [4]), -20.5%. Besides, the inhibition at 37 µM in data set [1] (37 µM, TZM-bl cells) was 21.6%; in data set [2] (setting [5]) it was -9.6%. The inhibition at 75 µM in data set [1] (75 µM, TZM-bl cells) is -15.7%; in data set [2] (setting [6]), -18%. In addition, the inhibition at 150 µM in data set [1] (150 µM, TZM-bl cells) was -22.4%; in data set [2] (setting [7]), -61.9%. Besides, the “anti-HIV activity against R5 strain in words” value in data set [2] (TZM-bl cells) is on record as “did not inhibit the replicative activity”.
As for `CN(C)[C@@H](Cc1cc(Cl)c(O)c(Cl)c1)C(=O)O` [TDC-2M], the “anti-HIV activity against X4 strain in words” value in data set [1] (TZM-bl cells) is on record as “no antiviral activity”. For the same compound, in data set [1] (18 µM, TZM-bl cells), the inhibition at 18 µM was -4.8%. Further, the inhibition at 37 µM in data set [1] (37 µM, TZM-bl cells) is -15.4%; in data set [2] (setting [5]), 33%. The inhibition at 75 µM was -39.5% in data set [1] (75 µM, TZM-bl cells) and 37.9% in data set [2] (setting [6]). The inhibition at 150 µM was -72.2% in data set [1] (150 µM, TZM-bl cells) and 32.3% in data set [2] (setting [7]). In addition, the “anti-HIV activity against R5 strain in words” value in data set [2] (TZM-bl cells) is reported as “showed antiviral activity”. Further, half-maximal inhibition in data set [2] (Human immunodeficiency virus 1, BAL, TZM-bl, 48 h, HIV-1 BaL (R5), TZM-bl cells, luciferase) (IC50) was put at 141 µM. The inhibition at 300 µM in data set [2] (setting [8]) amounted to 47.3%. Moreover, the SI in data set [2] (selectivity index against HIV-1 BaL (CC50 and IC50 of Table 3)) is ~1.24. Further, in data set [3], the CC50 at 48 h is ~174 µM.
In the case of `C[N+](C)(C)[C@@H](Cc1cc(Cl)c(O)c(Cl)c1)C(=O)O` [TDC-3M], in data set [1] (TZM-bl cells), the “anti-HIV activity against X4 strain in words” value is “no antiviral activity”. Also, in data set [1] (18 µM, TZM-bl cells), the inhibition at 18 µM was -111%. Also, the inhibition at 37 µM was determined as 9.6% in data set [1] (37 µM, TZM-bl cells) and 20.4% in data set [2] (setting [5]). The inhibition at 75 µM in data set [1] (75 µM, TZM-bl cells) was 8.1%; in data set [2] (setting [6]), 39.7%. In addition, the inhibition at 150 µM in data set [1] (150 µM, TZM-bl cells) amounted to 15.1%; in data set [2] (setting [7]), 29.6%. Further, in data set [2] (TZM-bl cells), the “anti-HIV activity against R5 strain in words” value was “showed antiviral activity”. Besides, the inhibition at 300 µM in data set [2] (setting [8]) was found to be 25.9%. In addition, the CC50 at 48 h in data set [3] was > 300 µM.
Regarding `COc1c(Br)cc(C[C@@H](C(=O)O)[N+](C)(C)C)cc1Br` [TODB-3M], the “anti-HIV activity against X4 strain in words” value in data set [1] (TZM-bl cells) was “showed no activity”. In addition, the inhibition at 18 µM in data set [1] (18 µM, TZM-bl cells) was 12%; in data set [2] (setting [4]) it was -26%. The inhibition at 37 µM is -41.1% in data set [1] (37 µM, TZM-bl cells) and -43.3% in data set [2] (setting [5]). Moreover, the inhibition at 75 µM is 3.2% in data set [1] (75 µM, TZM-bl cells) and -17.7% in data set [2] (setting [6]). In addition, the inhibition at 150 µM in data set [1] (150 µM, TZM-bl cells) was -34%; in data set [2] (setting [7]) it was -9.2%. Moreover, in data set [2] (TZM-bl cells), the “anti-HIV activity against R5 strain in words” value is on record as “showed no activity”.
Regarding `CN(C)CCc1cc(Br)c(O)c(Br)c1` [YDB-2M], in data set [1] (TZM-bl cells), the “anti-HIV activity against X4 strain in words” value is given as “had no antiviral activity”. In data set [1], the inhibition at 18 µM is 14.6%, the inhibition at 37 µM is -7%, the inhibition at 75 µM was found to be 9.8% and the inhibition at 150 µM was -20.7%. Also, the “anti-HIV activity against R5 strain in words” value in data set [2] (TZM-bl cells) was “had no antiviral activity; also recorded: did not show significant anti-HIV activity”. Further, in data set [2] (setting [9]), the inhibition at 18 µM came out at 26.1%, the inhibition at 37 µM came to 2.7%, the inhibition at 75 µM came to 7% and the inhibition at 150 µM was -45.8%.
As to `CN(C)CCc1cc(Cl)c(O)c(Cl)c1` [YDC-2M], the “anti-HIV activity against X4 strain in words” value in data set [1] (TZM-bl cells) was “had no activity”. Moreover, in data set [1], the inhibition at 18 µM came out at 15.1%, the inhibition at 37 µM is -22%, the inhibition at 75 µM amounted to 22.6% and the inhibition at 150 µM was determined as 29.1%. For the same compound, in data set [2] (TZM-bl cells), the “anti-HIV activity against R5 strain in words” value is on record as “had no activity”. Also, in data set [2] (setting [9]), the inhibition at 18 µM was -4.1%, the inhibition at 37 µM is 8.8%, the inhibition at 75 µM was 19.1% and the inhibition at 150 µM is -2.8%.
`COc1c(Br)cc(CCN(C)C)cc1Br` [YODB-2M]: in data set [1], the inhibition at 18 µM is -24.6%, the inhibition at 37 µM is -20%, the inhibition at 75 µM is -20.2% and the inhibition at 150 µM was -17%. In data set [2] (setting [9]), the inhibition at 18 µM is -51.1%, the inhibition at 37 µM was -73.9%, the inhibition at 75 µM was -88.5% and the inhibition at 150 µM was -14.9%.
With `COc1c(Br)cc(CC[N+](C)(C)C)cc1Br` [YODB-3M], the inhibition at 18 µM in data set [1] (18 µM, TZM-bl cells) was -3.1%; in data set [2] (setting [4]), -25.1%. Moreover, the inhibition at 37 µM in data set [1] (37 µM, TZM-bl cells) was -10.5%; in data set [2] (setting [5]) it was -14.1%. For the same compound, the inhibition at 75 µM in data set [1] (75 µM, TZM-bl cells) is 20.3%; in data set [2] (setting [6]), -9%. Further, the inhibition at 150 µM was found to be 13.1% in data set [1] (150 µM, TZM-bl cells) and 9.3% in data set [2] (setting [7]). This compound also yielded a CC50 at 48 h in data set [3] of 78.7 µM.
Turning to `COc1c(Cl)cc(CCN(C)C)cc1Cl` [YODC-2M], in data set [1], the inhibition at 18 µM was -0.3%, the inhibition at 37 µM stood at 2.3%, the inhibition at 75 µM was -2.2% and the inhibition at 150 µM was determined as 2.5%. In data set [2] (setting [9]), the inhibition at 18 µM worked out at 24.5%, the inhibition at 37 µM came out at 12.2%, the inhibition at 75 µM stood at 26.9% and the inhibition at 150 µM is -96.2%.
For `COc1c(Cl)cc(CC[N+](C)(C)C)cc1Cl` [YODC-3M], the inhibition at 18 µM in data set [1] (18 µM, TZM-bl cells) was 3.2%; in data set [2] (setting [4]), -19.7%. For the same compound, the inhibition at 37 µM is -5.8% in data set [1] (37 µM, TZM-bl cells) and -7.7% in data set [2] (setting [5]). The inhibition at 75 µM is -8.6% in data set [1] (75 µM, TZM-bl cells) and -1% in data set [2] (setting [6]). Also, the inhibition at 150 µM was 0.5% in data set [1] (150 µM, TZM-bl cells) and -1.3% in data set [2] (setting [7]).
